# Laboratory results reported in PMC1971568 (British Journal of Cancer, 1990).
# Where two headings read alike, the source gives them in different places.
# Experiments:
# [1] = test system: carboxypeptidase G2 (CPG2); parameters: method as in Bagshawe et al., 1988; settings: ref Bagshawe et al., 1988; cited from earlier work
# [2] = Nu/Nu, mouse, in vivo, iv
# LS174T colonic cell line = test system: LS174T colonic cell line; parameters: method as in Springer et al., 1990; settings: ref Springer et al., 1990; cited from earlier work
# [3] = in vivo, ip
# [4] = Localisation of antibody-enzyme conjugate: enzyme activity in tissues, CC3 model; settings: tissue homogenate incubated at 37C with prodrug 34 µg ml-1 (87 µM)
# [5] = test system: human JAR choriocarcinoma cell line; settings: cited from earlier work
# CC3 tumours = test system: CC3 tumours; parameters: method as in Bagshawe et al., 1988; settings: single course of two phase prodrug therapy (antibody-enzyme conjugate then prodrug); ref Bagshawe et al., 1988; cited from earlier work
smiles,measurement,setting,value
"O=C(O)CC[C@H](NC(=O)c1ccc(N(CCCl)CCCl)cc1)C(=O)O [prodrug, 4-(bis (2-chloroethyl)amino) benzoyl-L-glutamic acid]",Affinity of the enzyme for prodrug,[1],very high affinity
same,"AUC, area under plasma concentration versus time curve from zero to infinity",[2],15.4
same,Cytotoxicity against LS174T cells in culture,LS174T colonic cell line,very little cytotox- icity
same,"AUC, area under plasma concentration versus time curve from zero to infinity","[3]; Nu/Nu, mouse",7.09
same,"Cl, total body clearance","[3]; Nu/Nu, mouse, 41 umol/kg",1.18
same,"Vd, apparent volume of distribution","[3]; Nu/Nu, mouse, 41 umol/kg",0.07 L
same,AUC in liver,[3]; 41 umol/kg,62
same,AUC in tumour,[3]; 41 umol/kg,3.3
same,Activation of prodrug by tissues of mice which did not receive conjugate,[4],No activation
same,Cytotoxicity against JAR cells in culture,[5],very little cytotox- icity
same,Growth of CC3 tumours,CC3 tumours,marked inhibition of growth
